Common to all, as to format: functional
For assay [1], the system named is Staphylococcus aureus. Briefly: Antibacterial activity against Staphylococcus aureus ATCC 29213.
In assay [2] the test system is Staphylococcus aureus. Kind of assay: Antibacterial activity against Staphylococcus aureus ATCC 43300.
The next assay deals with Enterococcus faecalis. Briefly: Antibacterial activity against Enterococcus faecalis ATCC 29212.
The subject of another assay is Bacillus subtilis. Kind of assay: Antibacterial activity against Bacillus subtilis PY79.

Values after ≈ are worked out from the molar mass of the structure shown. Active and inactive are the calls of the source. The rule behind the calls is not given here.

Consider `CCN1CC[C@@H](CN(Cc2ccccc2)Cc2cccc([N+](=O)[O-])c2)OC1=O`, for which the MIC50 amounted to 90 µg/mL (≈ 235 µM) in the assay with Staphylococcus aureus [1], 22 µg/mL (≈ 57.4 µM) in the assay with Staphylococcus aureus [2], 47 µg/mL (≈ 123 µM) with Enterococcus faecalis and 108 µg/mL (≈ 282 µM) against Bacillus subtilis.
In the case of `CN1CC[C@@H](CN(Cc2ccccc2)Cc2ccc3ccccc3c2)OC1=O`, the MIC50 is 11.5 µg/mL (≈ 30.7 µM) against Staphylococcus aureus [1], 13 µg/mL (≈ 34.7 µM) against Staphylococcus aureus [2], 14.9 µg/mL (≈ 39.8 µM) against Enterococcus faecalis and 12 µg/mL (≈ 32 µM) in the assay on Bacillus subtilis. For the same molecule, the MIC90 is 14.9 µg/mL (≈ 39.8 µM) against Staphylococcus aureus [1] and 30 µg/mL (≈ 80.1 µM) with Bacillus subtilis.
On to `CN1C[C@@H](CN(Cc2ccccc2)Cc2ccc(Br)cc2)OC1=O`, for which the MIC50 with Staphylococcus aureus [1] came out at 20 µg/mL (≈ 51.4 µM); in the assay on Staphylococcus aureus [2], 59.5 µg/mL (≈ 153 µM); with Bacillus subtilis, 22 µg/mL (≈ 56.5 µM). Moreover, the MIC50 entry with Enterococcus faecalis was “inactive”.
With `CN1C[C@@H](CN(Cc2ccccc2)Cc2ccc(F)cc2)OC1=O`, the MIC50 entry in the assay with Staphylococcus aureus [1], in the assay with Staphylococcus aureus [2], in the assay with Enterococcus faecalis and with Bacillus subtilis was “inactive” in each case.
As to `CN1CC[C@@H](CN(Cc2ccccc2)Cc2cccc([N+](=O)[O-])c2)OC1=O`, the MIC50 is 138 µg/mL (≈ 374 µM) with Staphylococcus aureus [1], 119 µg/mL (≈ 322 µM) in the assay with Enterococcus faecalis and 238 µg/mL (≈ 644 µM) in the assay on Bacillus subtilis. The MIC50 result in the assay on Staphylococcus aureus [2] was “inactive”.
With `CCN1CC[C@@H](CN(Cc2ccccc2)Cc2c(F)cccc2F)OC1=O`, the MIC50 turned out to be 47 µg/mL (≈ 126 µM) against Staphylococcus aureus [1], 70 µg/mL (≈ 187 µM) with Staphylococcus aureus [2], 59.5 µg/mL (≈ 159 µM) with Enterococcus faecalis and 77 µg/mL (≈ 206 µM) with Bacillus subtilis.
As for `CCN1CC[C@@H](CN(Cc2ccccc2)Cc2ccc(F)cc2F)OC1=O`, the MIC50 in the assay on Staphylococcus aureus [1] was found to be 45 µg/mL (≈ 120 µM); against Staphylococcus aureus [2], 50.5 µg/mL (≈ 135 µM); in the assay with Enterococcus faecalis, 59.5 µg/mL (≈ 159 µM); against Bacillus subtilis, 38 µg/mL (≈ 101 µM).
With `CN1CC[C@@H](CN(Cc2ccccc2)Cc2ccccc2C#N)OC1=O`, the MIC50 against Staphylococcus aureus [1] turned out to be 166 µg/mL (≈ 475 µM); with Staphylococcus aureus [2] it was 180 µg/mL (≈ 515 µM); in the assay on Enterococcus faecalis it was 59.5 µg/mL (≈ 170 µM); in the assay with Bacillus subtilis, 180 µg/mL (≈ 515 µM).
Take `CN1CC[C@@H](CN(Cc2ccccc2)Cc2ccc([N+](=O)[O-])cc2)OC1=O`: the MIC50 in the assay on Staphylococcus aureus [1] stood at 81 µg/mL (≈ 219 µM); with Enterococcus faecalis, 119 µg/mL (≈ 322 µM); against Bacillus subtilis, 98 µg/mL (≈ 265 µM). Further, the MIC50 entry in the assay with Staphylococcus aureus [2] is “inactive”.
For the molecule `O=C(N[C@H](CO)[C@H](O)c1ccc([N+](=O)[O-])cc1)C(Cl)Cl` [CHLORAMPHENICOL], the MIC90 with Staphylococcus aureus [1] came to 7.44 µg/mL (≈ 23 µM); with Staphylococcus aureus [2] it was 7.44 µg/mL (≈ 23 µM); against Enterococcus faecalis, 4 µg/mL (≈ 12.4 µM); against Bacillus subtilis it was 2 µg/mL (≈ 6.19 µM).
For the molecule `CN1CC[C@@H](CN(Cc2ccccc2)Cc2cccc(C#N)c2)OC1=O`, the MIC50 against Staphylococcus aureus [1] worked out at 180 µg/mL (≈ 515 µM); against Staphylococcus aureus [2] it was 238 µg/mL (≈ 681 µM); with Enterococcus faecalis, 7.4 µg/mL (≈ 21.2 µM); with Bacillus subtilis, 180 µg/mL (≈ 515 µM).
With `CCN1CC[C@@H](CN(Cc2ccccc2)Cc2ccccc2C#N)OC1=O`, the MIC50 against Staphylococcus aureus [1] was determined as 130 µg/mL (≈ 358 µM); with Staphylococcus aureus [2], 180 µg/mL (≈ 495 µM); in the assay with Enterococcus faecalis, 33 µg/mL (≈ 90.8 µM); against Bacillus subtilis, 160 µg/mL (≈ 440 µM).
As for `CCN1CC[C@@H](CN(Cc2ccccc2)Cc2ccccn2)OC1=O`, the MIC50 result in the assay on Staphylococcus aureus [1], with Staphylococcus aureus [2], with Enterococcus faecalis and with Bacillus subtilis was “inactive” in each case.
With `CCN1CC[C@@H](CN(Cc2ccccc2)Cc2cc(F)cc(F)c2)OC1=O`, the MIC50 stood at 40 µg/mL (≈ 107 µM) with Staphylococcus aureus [1], 45 µg/mL (≈ 120 µM) against Staphylococcus aureus [2], 37 µg/mL (≈ 98.8 µM) in the assay on Enterococcus faecalis and 43 µg/mL (≈ 115 µM) against Bacillus subtilis.
As to `CN1C[C@@H](CN(Cc2ccccc2)Cc2ccccc2Br)OC1=O`, the MIC50 with Staphylococcus aureus [1] was found to be 18 µg/mL (≈ 46.2 µM); with Staphylococcus aureus [2], 21 µg/mL (≈ 53.9 µM); with Enterococcus faecalis, 7.4 µg/mL (≈ 19 µM); against Bacillus subtilis, 22 µg/mL (≈ 56.5 µM).
On to `CN1CC[C@@H](CN(Cc2ccccc2)Cc2ccc(F)cc2)OC1=O`, for which the MIC50 against Staphylococcus aureus [1] came out at 87.1 µg/mL (≈ 254 µM); with Staphylococcus aureus [2], 119 µg/mL (≈ 348 µM); against Enterococcus faecalis it was 120 µg/mL (≈ 350 µM); in the assay with Bacillus subtilis it was 95 µg/mL (≈ 277 µM).
As to `CCN1CC[C@@H](CN(Cc2ccccc2)Cc2ccc(F)cc2)OC1=O`, the MIC50 against Staphylococcus aureus [1] is 64 µg/mL (≈ 180 µM); in the assay with Staphylococcus aureus [2], 47 µg/mL (≈ 132 µM); with Enterococcus faecalis it was 35 µg/mL (≈ 98.2 µM); against Bacillus subtilis, 42.5 µg/mL (≈ 119 µM).
As for `CCN1CC[C@@H](CN(Cc2ccccc2)Cc2ccc(Cl)c(Cl)c2)OC1=O`, the MIC50 came to 5.6 µg/mL (≈ 13.7 µM) in the assay on Staphylococcus aureus [1], 6.56 µg/mL (≈ 16.1 µM) against Staphylococcus aureus [2] and 5 µg/mL (≈ 12.3 µM) with Bacillus subtilis. In addition, the MIC90 in the assay with Staphylococcus aureus [1] stood at 9.85 µg/mL (≈ 24.2 µM); against Bacillus subtilis, 7.44 µg/mL (≈ 18.3 µM). For the same molecule, the MIC50 entry with Enterococcus faecalis was “inactive”.
As for `CCN1CC[C@@H](CN(Cc2ccccc2)Cc2ccccc2C)OC1=O`, the MIC50 turned out to be 22 µg/mL (≈ 62.4 µM) against Staphylococcus aureus [1], 22.5 µg/mL (≈ 63.8 µM) against Staphylococcus aureus [2], 8.1 µg/mL (≈ 23 µM) in the assay on Enterococcus faecalis and 26 µg/mL (≈ 73.8 µM) against Bacillus subtilis. Further, the MIC90 with Staphylococcus aureus [1] turned out to be 29.8 µg/mL (≈ 84.5 µM); in the assay with Bacillus subtilis, 59.5 µg/mL (≈ 169 µM).
Consider `CN1C[C@@H](CN(Cc2ccccc2)Cc2ccc(F)cc2F)OC1=O`, for which the figures for the MIC50 in the assay with Staphylococcus aureus [1], against Staphylococcus aureus [2] and against Bacillus subtilis were 85 µg/mL (≈ 245 µM), 119 µg/mL (≈ 344 µM) and 90 µg/mL (≈ 260 µM), respectively. Also, in the assay with Enterococcus faecalis, the MIC50 result was “inactive”.
For `CCN1CC[C@@H](CN(Cc2ccccc2)Cc2ccc(C#N)cc2)OC1=O`, the MIC50 against Staphylococcus aureus [1] worked out at 180 µg/mL (≈ 495 µM); against Staphylococcus aureus [2] it was 59.5 µg/mL (≈ 164 µM); in the assay on Enterococcus faecalis it was 12 µg/mL (≈ 33 µM); with Bacillus subtilis, 10 µg/mL (≈ 27.5 µM).
On the same counts, the results for `CCN1CC[C@@H](CN(Cc2ccccc2)Cc2cccnc2)OC1=O` are “inactive”, “inactive”, 238 µg/mL (≈ 701 µM) and “inactive”.
For the molecule `CCN1CC[C@@H](CN(Cc2ccccc2)Cc2cccc(OC)c2)OC1=O`, the MIC50 with Staphylococcus aureus [1] amounted to 90 µg/mL (≈ 244 µM); against Staphylococcus aureus [2] it was 90 µg/mL (≈ 244 µM); against Enterococcus faecalis, 80.5 µg/mL (≈ 218 µM); in the assay on Bacillus subtilis, 95 µg/mL (≈ 258 µM).
`CCN1CC[C@@H](CN(Cc2ccccc2)Cc2ccc3ccccc3c2)OC1=O`: the MIC50 with Staphylococcus aureus [1] is 15 µg/mL (≈ 38.6 µM); against Enterococcus faecalis it was 13 µg/mL (≈ 33.5 µM); with Bacillus subtilis it was 29 µg/mL (≈ 74.6 µM). In the assay with Staphylococcus aureus [2], the MIC50 result was “inactive”.
Take `CCN1CC[C@@H](CN(Cc2ccccc2)Cc2cccc(C#N)c2)OC1=O`: the MIC50 is 238 µg/mL (≈ 655 µM) with Staphylococcus aureus [1], 45 µg/mL (≈ 124 µM) in the assay on Enterococcus faecalis and 238 µg/mL (≈ 655 µM) against Bacillus subtilis. In addition, the MIC50 entry in the assay on Staphylococcus aureus [2] is “inactive”.
As for `CN1CC[C@@H](CN(Cc2ccccc2)Cc2ccc(F)cc2F)OC1=O`, the MIC50 against Staphylococcus aureus [1] worked out at 50 µg/mL (≈ 139 µM); in the assay on Staphylococcus aureus [2], 72 µg/mL (≈ 200 µM); in the assay with Enterococcus faecalis it was 59.5 µg/mL (≈ 165 µM); in the assay on Bacillus subtilis, 55 µg/mL (≈ 153 µM).
In the case of `CN1C[C@@H](CN(Cc2ccccc2)Cc2ccc(F)c(F)c2)OC1=O`, the MIC50 in the assay on Staphylococcus aureus [1] is 119 µg/mL (≈ 344 µM); against Bacillus subtilis, 80 µg/mL (≈ 231 µM). Moreover, the MIC50 result in the assay with Staphylococcus aureus [2] and with Enterococcus faecalis was “inactive” throughout.
As to `CCN1CC[C@@H](CN(Cc2ccccc2)Cc2cccc3ccccc23)OC1=O`, the MIC50 against Staphylococcus aureus [1] worked out at 10 µg/mL (≈ 25.7 µM); against Staphylococcus aureus [2], 35 µg/mL (≈ 90.1 µM); in the assay on Enterococcus faecalis it was 7.4 µg/mL (≈ 19 µM); with Bacillus subtilis, 7.6 µg/mL (≈ 19.6 µM). Further, the MIC90 with Staphylococcus aureus [1] is 14.9 µg/mL (≈ 38.4 µM); in the assay on Bacillus subtilis, 30 µg/mL (≈ 77.2 µM).
In the case of `CN1CC[C@@H](CN(Cc2ccccc2)Cc2ccc(C#N)cc2)OC1=O`, the values for the MIC50 in the assay on Staphylococcus aureus [1], in the assay on Enterococcus faecalis and against Bacillus subtilis were 200 µg/mL (≈ 572 µM), 238 µg/mL (≈ 681 µM) and 238 µg/mL (≈ 681 µM), respectively. Moreover, the MIC50 entry in the assay with Staphylococcus aureus [2] is “inactive”.
Turning to `CCN1CC[C@@H](CN(Cc2ccccc2)Cc2ccccc2[N+](=O)[O-])OC1=O`, the MIC50 with Staphylococcus aureus [1] amounted to 72 µg/mL (≈ 188 µM); in the assay on Staphylococcus aureus [2], 100 µg/mL (≈ 261 µM); against Enterococcus faecalis, 43 µg/mL (≈ 112 µM); against Bacillus subtilis it was 100 µg/mL (≈ 261 µM).
On to `CCN1CC[C@@H](CN(Cc2ccccc2)Cc2ccc([N+](=O)[O-])cc2)OC1=O`, for which the MIC50 result with Staphylococcus aureus [1], in the assay with Staphylococcus aureus [2] and with Bacillus subtilis was “inactive” each time. This molecule registered an MIC50 in the assay on Enterococcus faecalis of 45 µg/mL (≈ 117 µM).
For `CN1CC[C@@H](CN(Cc2ccccc2)Cc2ccccc2[N+](=O)[O-])OC1=O`, the MIC50 in the assay on Staphylococcus aureus [1] stood at 179 µg/mL (≈ 485 µM); against Enterococcus faecalis, 238 µg/mL (≈ 644 µM); in the assay on Bacillus subtilis it was 238 µg/mL (≈ 644 µM). Further, in the assay on Staphylococcus aureus [2], the MIC50 entry is “inactive”.

By MIC50 is commonly meant an inhibitory concentration at the 50% level, which refers to growth in some studies and to a panel of isolates in others. Usually MIC90 stands for an inhibitory concentration at the 90% level, which refers to growth in some studies and to a panel of isolates in others. Lower therefore signals greater potency.

The values above are taken from ChEMBL document CHEMBL1146952, “Synthesis and antibacterial activities of chiral 1,3-oxazinan-2-one derivatives” (2006).
